Laboratory results taken from patent US9486462B2, “Formulations of aminoglycosides and fosfomycin in a combination having improved chemical properties” (CARDEAS PHARMA CORPORATION, priority 2013, dated 2016).

Experiments:
[1] = pH of amikacin starting materials; format: physicochemical; settings: amikacin base, before neutralization
[2] = commercially available; cited from earlier work
[3] = in vivo
Protocol: (§1) In clinical use, concentration of the aminoglycoside and fosfomycin are delivered to yield a concentration in the lungs that is MIC90 for the target organism. For amikacin, about […] of amikacin chloride and about […] of fosfomycin disodium are delivered to the lung (50 mg amikacin chloride and 20 mg fosfomycin in solution) using a nebulizer with an expected 15% delivery efficiency.

Staphylococcus aureus [4] = test: Predicted lung concentration relative to MIC90, Staphylococcus aureus; format: in vivo
Protocol: as §1

pseudomonas = settings: approximately 20 mg delivered to the lung, co-infected patients; cited from earlier work
Staphylococcus aureus [5] = settings: cited from earlier work
[6] = cited from earlier work
[7] = system: highly resistant Gram-negative organisms; test: Predicted lung concentration relative to MIC90, Gram-negative organisms; format: in vivo; settings: most highly resistant Gram-negative organisms
Protocol: as §1

With NCC[C@H](O)C(=O)N[C@@H]1C[C@H](N)[C@@H](O[C@H]2O[C@H](CN)[C@@H](O)[C@H](O)[C@H]2O)[C@H](O)[C@H]1O[C@H]1O[C@H](CO)[C@@H](O)[C@H](N)[C@H]1O [amikacin] the pH [1] was “approximately 11”.

In the case of NCC[C@H](O)C(=O)N[C@@H]1C[C@H](N)[C@@H](O[C@H]2O[C@H](CN)[C@@H](O)[C@H](O)[C@H]2O)[C@H](O)[C@H]1O[C@H]1O[C@H](CO)[C@@H](O)[C@H](N)[C@H]1O.O=S(=O)(O)O.O=S(=O)(O)O [amikacin sulfate], the “starting pH” value [2] is listed as 3.5-5.5.

In the case of C[C@@H]1O[C@@H]1P(=O)(O)O [fosfomycin], the “predicted concentration delivered to the lungs” value [3] is given as “about 5400 ug/mL”, the “predicted peak concentration, times the MIC90” value (Staphylococcus aureus [4]) is given as “greater than 25 times” and the bacterial density (pseudomonas) is given as “Decreased bacterial density”. For the same molecule, the bacterial density (Staphylococcus aureus [5]; approximately 20 mg delivered to the lung, co-infected patients) was “Decreased bacterial density” and the killing of staphylococcus (Staphylococcus aureus [5]; estimated 40 mg delivered dose versus estimated 20 mg dose) was “more efficacious”.

In the case of NCC[C@H](O)C(=O)N[C@@H]1C[C@H](N)[C@@H](O[C@H]2O[C@H](CN)CC[C@H]2N)[C@H](O)[C@H]1O[C@H]1O[C@H](CO)[C@@H](O)[C@H](N)[C@H]1O [arbekacin], the pKa [6] is given as 10.2.

For gentamycin, the pKa [6] is given as 8.2.

For amikacin chloride, the “predicted concentration delivered to the lungs” value [3] was “about 13,500 ug/mL” and the “predicted lung concentration, times the MIC90” value [7] was “greater than 25 times”.
